Measurements reported in patent publication US20240041042A1, “1-(PYRIDYL)-5-AZINYLPYRAZOLE DERIVATIVES, AND THEIR USE FOR CONTROL OF UNDESIRED PLANT GROWTH” (Bayer Aktiengesellschaft, priority 2020, published 2024).

Key:
Type in all cases: in vivo
[1] = system: Abutilon theophrasti (ABUTH); test: Pre-emergence herbicidal action against ABUTH; settings: Dosage column 320 g/ha (title prints 3200 g/ha); scored visually after about 3 weeks; 100% = plants have died
Procedure, shortened: (§1)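 Read-out is visual percent damage relative to untreated pots, with 100% meaning dead plants and 0% meaning no difference, assessed roughly three weeks after treatment. Compounds were applied pre-emergence to the covering soil at up to 320 g/ha.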

[2] = system: Alopecurus myosuroides (ALOMY); test: Pre-emergence herbicidal action against ALOMY; settings: scored visually after about 3 weeks, 100% = plants have died
Procedure, shortened: as §1

[3] = system: Amaranthus retroflexus (AMARE); test: Pre-emergence herbicidal action against AMARE; settings: visual scoring after about 3 weeks vs untreated controls
Procedure, shortened: as §1

[4] = system: Avena fatua (AVEFA); test: Pre-emergence herbicidal action against AVEFA; settings: 320 g/ha, visual scoring after about 3 weeks vs untreated controls
Procedure, shortened: as §1

[5] = system: Echinochloa crus-galli (ECHCG); test: Pre-emergence herbicidal action against ECHCG
Procedure, shortened: as §1

[6] = system: Lolium rigidum (LOLRI); test: Pre-emergence herbicidal action against LOLRI
Procedure, shortened: as §1

[7] = system: Matricaria inodora (MATIN); test: Pre-emergence herbicidal action against MATIN
Procedure, shortened: as §1

[8] = system: Pharbitis purpurea (PHBPU); test: Pre-emergence herbicidal action against PHBPU
Procedure, shortened: as §1

[9] = system: Polygonum convolvulus (POLCO); test: Pre-emergence herbicidal action against POLCO
Procedure, shortened: as §1

[10] = system: Setaria viridis (SETVI); test: Pre-emergence herbicidal action against SETVI
Procedure, shortened: as §1

[11] = system: Verconica persica (VERPE); test: Pre-emergence herbicidal action against VERPE
Procedure, shortened: as §1

[12] = system: Viola tricolor (VIOTR); test: Pre-emergence herbicidal action against VIOTR
Procedure, shortened: as §1

[13] = system: Abutilon theophrasti (ABUTH); test: Post-emergence herbicidal action against ABUTH; settings: visual rating about 3 weeks after treatment vs untreated controls (100% = plants have died, 0% = like control plants)
Procedure, shortened: (§2)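 Greenhouse plants sprayed at the one-leaf stage, 2–3 weeks after sowing, with WP or EC formulations plus 0.5% additive at 600 l/ha water. Activity rated visually after about 3 weeks versus untreated controls (100% = dead, 0% = like control), at 320 g/ha or lower.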

[14] = system: Alopecurus myosuroides (ALOMY); test: Post-emergence herbicidal action against ALOMY; settings: visual rating about 3 weeks after treatment vs untreated controls (100% = plants have died, 0% = like control plants)
Procedure, shortened: as §2

[15] = system: Amaranthus retroflexus (AMARE); test: Post-emergence herbicidal action against AMARE
Procedure, shortened: as §2

[16] = system: Avena fatua (AVEFA); test: Post-emergence herbicidal action against AVEFA; settings: visual rating about 3 weeks after treatment
Procedure, shortened: as §2

[17] = system: Echinochloa crus-galli (ECHCG); test: Post-emergence herbicidal action against ECHCG
Procedure, shortened: as §2

[18] = system: Lolium rigidum (LOLRI); test: Post-emergence herbicidal action against LOLRI
Procedure, shortened: as §2

[19] = system: Matricaria inodora (MATIN); test: Post-emergence herbicidal action against MATIN; settings: dosage 320 g/ha
Procedure, shortened: as §2

[20] = system: Pharbitis purpurea (PHBPU); test: Post-emergence herbicidal action against PHBPU
Procedure, shortened: as §2

[21] = system: Setaria viridis (SETVI); test: Post-emergence herbicidal action against SETVI
Procedure, shortened: as §2

[22] = system: Verconica persica (VERPE); test: Post-emergence herbicidal action against VERPE
Procedure, shortened: as §2

[23] = system: Viola tricolor (VIOTR); test: Post-emergence herbicidal action against VIOTR
Procedure, shortened: as §2

[24] = system: Polygonum convolvulus (POLCO); test: Post-emergence herbicidal action against POLCO; settings: dosage 320 g/ha
Procedure, shortened: as §2

[25] = system: Oryza sativa (ORYSA); settings: crop plant compatibility, 80 g/ha, effect in comparison to untreated controls
Procedure, shortened: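 Test crops were treated 2 to 3 weeks after sowing, once they reached one leaf, by spraying compound in water with 0.5% additive at 600 l/ha. Visual scoring compared them with untreated controls roughly 3 weeks on, and appendices a, b and c denote different doses.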

[26] = 320 g/ha, visual rating about 3 weeks after treatment

COC(=O)C(C)COC(=O)[C@@H](C)Oc1nn(-c2ccccn2)c(-c2cncc(F)c2)c1Cl (stereo partly drawn) [Example I-198]
90%: Pre-emergence action against ABUTH [1] | Pre-emergence action against ALOMY ([2]; 320 g/ha) | Pre-emergence action against AVEFA in % [4] | Pre-emergence action against ECHCG in % ([5]; dosage 80 g/ha) | Pre-emergence action against MATIN in % ([7]; dosage 80 g/ha) | Pre-emergence action against MATIN in % ([7]; dosage 320 g/ha) | Pre-emergence action against PHBPU in % ([8]; dosage 320 g/ha) | Pre-emergence action against POLCO in % ([9]; dosage 80 g/ha) | Pre-emergence action against POLCO in % ([9]; dosage 320 g/ha) | Pre-emergence action against VERPE in % ([11]; dosage 80 g/ha) | Pre-emergence action against VIOTR in % ([12]; dosage 80 g/ha) | Post-emergence action against AMARE in % [15, 26] | Post-emergence action against PHBPU in % ([20]; dosage 320 g/ha)
100%: Pre-emergence action against AMARE in % ([3]; 80 g/ha) | Pre-emergence action against AMARE in % ([3]; 320 g/ha) | Pre-emergence action against ECHCG in % ([5]; dosage 320 g/ha) | Pre-emergence action against LOLRI in % ([6]; dosage 80 g/ha) | Pre-emergence action against LOLRI in % ([6]; dosage 320 g/ha) | Pre-emergence action against SETVI in % ([10]; dosage 80 g/ha) | Pre-emergence action against SETVI in % ([10]; dosage 320 g/ha) | Pre-emergence action against VERPE in % ([11]; dosage 320 g/ha) | Pre-emergence action against VIOTR in % ([12]; 320 g/ha, Viola tricolor)
80%: Pre-emergence action against ALOMY ([2]; 80 g/ha) | Pre-emergence action against PHBPU in % ([8]; dosage 80 g/ha) | Post-emergence action against ABUTH in % ([13]; 80 g/ha) | Post-emergence action against ABUTH in % ([13]; 320 g/ha) | Post-emergence action against ALOMY in % ([14]; 80 g/ha) | Post-emergence action against ALOMY in % ([14]; 320 g/ha) | Post-emergence action against AMARE in % ([15]; 80 g/ha, visual rating about 3 weeks after treatment vs untreated controls (100% = plants have died, 0% = like control plants)) | Post-emergence action against AVEFA in % ([16]; 80 g/ha) | Post-emergence action against AVEFA in % ([16]; 320 g/ha) | Post-emergence action against ECHCG in % ([17]; dosage 80 g/ha) | Post-emergence action against ECHCG in % ([17]; dosage 320 g/ha) | Post-emergence action against LOLRI in % ([18]; dosage 80 g/ha) | Post-emergence action against LOLRI in % ([18]; dosage 320 g/ha) | Post-emergence action against MATIN in % [19] | Post-emergence action against PHBPU in % ([20]; dosage 80 g/ha) | Post-emergence action against SETVI in % ([21]; dosage 80 g/ha) | Post-emergence action against SETVI in % ([21]; dosage 320 g/ha) | Post-emergence action against VERPE in % ([22]; 320 g/ha, VERPE) | Post-emergence action against VERPE in % ([22]; dosage 80 g/ha) | Post-emergence action against VIOTR in % ([23]; 320 g/ha)

COC(=O)CNC(=O)[C@@H](C)Oc1nn(-c2ccccn2)c(-c2cncc(F)c2)c1Cl [Example I-185]
90%: Pre-emergence action against ALOMY ([2]; 320 g/ha) | Pre-emergence action against AVEFA in % [4] | Pre-emergence action against ECHCG in % ([5]; dosage 320 g/ha) | Pre-emergence action against MATIN in % ([7]; dosage 320 g/ha) | Pre-emergence action against PHBPU in % ([8]; dosage 320 g/ha) | Pre-emergence action against POLCO in % ([9]; dosage 320 g/ha) | Pre-emergence action against VERPE in % ([11]; dosage 320 g/ha) | Post-emergence action against ECHCG in % ([17]; dosage 320 g/ha)
100%: Pre-emergence action against AMARE in % ([3]; 80 g/ha) | Pre-emergence action against AMARE in % ([3]; 320 g/ha) | Pre-emergence action against LOLRI in % ([6]; dosage 80 g/ha) | Pre-emergence action against LOLRI in % ([6]; dosage 320 g/ha) | Pre-emergence action against SETVI in % ([10]; dosage 320 g/ha) | Pre-emergence action against VIOTR in % ([12]; 320 g/ha, Viola tricolor) | Pre-emergence action against VIOTR in % ([12]; dosage 80 g/ha)
20%: Post-emergence action against ORYSA in % [25]
80%: Pre-emergence action against ABUTH [1] | Pre-emergence action against ALOMY ([2]; 80 g/ha) | Pre-emergence action against ECHCG in % ([5]; dosage 80 g/ha) | Pre-emergence action against MATIN in % ([7]; dosage 80 g/ha) | Pre-emergence action against PHBPU in % ([8]; dosage 80 g/ha) | Pre-emergence action against POLCO in % ([9]; dosage 80 g/ha) | Pre-emergence action against SETVI in % ([10]; dosage 80 g/ha) | Pre-emergence action against VERPE in % ([11]; dosage 80 g/ha) | Post-emergence action against ABUTH in % ([13]; 80 g/ha) | Post-emergence action against ABUTH in % ([13]; 320 g/ha) | Post-emergence action against ALOMY in % ([14]; 320 g/ha) | Post-emergence action against AMARE in % [15, 26] | Post-emergence action against AVEFA in % ([16]; 320 g/ha) | Post-emergence action against ECHCG in % ([17]; dosage 80 g/ha) | Post-emergence action against LOLRI in % ([18]; dosage 80 g/ha) | Post-emergence action against LOLRI in % ([18]; dosage 320 g/ha) | Post-emergence action against MATIN in % [19] | Post-emergence action against POLCO in % [24] | Post-emergence action against SETVI in % ([21]; dosage 320 g/ha) | Post-emergence action against VERPE in % ([22]; 320 g/ha, VERPE) | Post-emergence action against VERPE in % ([22]; dosage 80 g/ha) | Post-emergence action against VIOTR in % ([23]; 80 g/ha) | Post-emergence action against VIOTR in % ([23]; 320 g/ha)
